# Reference: ChEMBL document CHEMBL4819001, “Discovery of tetrahydroquinolines and benzomorpholines as novel potent RORγt agonists” (Eur J Med Chem, 2021)
# Key:
# [1] = molecular target: T1, Nuclear receptor ROR-gamma (Homo sapiens, UniProt P51449); experiment: Agonist activity at APC-labelled RORgammat (unknown origin) assessed as biotinylated SRC recruitment measured after 1 hr by dual FRET assay
# T1 sequence (P51449 whole entry): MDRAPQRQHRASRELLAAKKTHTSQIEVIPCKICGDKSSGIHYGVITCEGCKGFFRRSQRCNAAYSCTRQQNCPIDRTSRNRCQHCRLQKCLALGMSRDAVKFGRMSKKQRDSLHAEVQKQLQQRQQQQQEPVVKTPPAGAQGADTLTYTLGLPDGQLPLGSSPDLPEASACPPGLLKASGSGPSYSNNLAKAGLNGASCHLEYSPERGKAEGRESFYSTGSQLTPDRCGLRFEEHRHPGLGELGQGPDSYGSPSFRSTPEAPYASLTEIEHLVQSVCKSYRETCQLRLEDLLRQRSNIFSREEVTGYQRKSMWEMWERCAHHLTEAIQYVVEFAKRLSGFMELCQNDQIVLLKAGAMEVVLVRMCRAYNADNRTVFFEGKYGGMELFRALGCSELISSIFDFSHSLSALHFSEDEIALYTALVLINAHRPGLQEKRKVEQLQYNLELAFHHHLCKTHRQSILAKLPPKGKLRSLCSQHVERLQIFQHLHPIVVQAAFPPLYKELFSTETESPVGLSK
# [2] = molecular target: T1, Nuclear receptor ROR-gamma; experiment: Agonist activity at human RORgammat LBD expressed in HEK293T cells assessed increase in Gal4 reporter gene transcription measured after 16 to 20 hrs by luciferase reporter gene assay; format: cell-based
# [3] = molecular target: T2, Nuclear receptor ROR-gamma (Mus musculus) (UniProt P51450); experiment: Agonist activity at RORgammat in mouse CD4+ Th17 cells assessed as promotion of IL17 production at 300 nM measured after 4 days by intracellular staining based flow cytometry; format: cell-based; details: filed as agonist, time 4.0 day
# T2 sequence (whole entry): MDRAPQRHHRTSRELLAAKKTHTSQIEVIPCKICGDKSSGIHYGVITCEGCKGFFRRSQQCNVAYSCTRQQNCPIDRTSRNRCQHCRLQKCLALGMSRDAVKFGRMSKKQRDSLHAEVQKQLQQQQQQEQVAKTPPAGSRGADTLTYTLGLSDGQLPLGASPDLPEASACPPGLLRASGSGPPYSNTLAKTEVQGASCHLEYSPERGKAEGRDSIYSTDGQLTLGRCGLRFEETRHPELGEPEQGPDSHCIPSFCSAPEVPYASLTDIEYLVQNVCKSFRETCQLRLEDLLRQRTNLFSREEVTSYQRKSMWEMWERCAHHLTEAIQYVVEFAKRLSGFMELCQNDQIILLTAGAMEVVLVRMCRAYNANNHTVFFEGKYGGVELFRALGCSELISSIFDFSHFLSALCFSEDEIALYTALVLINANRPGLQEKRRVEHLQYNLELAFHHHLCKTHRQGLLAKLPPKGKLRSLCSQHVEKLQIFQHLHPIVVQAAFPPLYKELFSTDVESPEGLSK
# [4] = molecular target: T2, Nuclear receptor ROR-gamma (Mus musculus); experiment: Agonist activity at RORgammat in mouse CD4+ Th17 cells assessed as promotion of IL17 production at 30 nM measured after 4 days by intracellular staining based flow cytometry; format: cell-based; details: filed as agonist, time 4.0 day
# [5] = molecular target: T1, Nuclear receptor ROR-gamma; experiment: Inverse agonist activity at APC-labelled RORgammat (unknown origin) assessed as inhibition of biotinylated SRC recruitment measured after 1 hr by dual FRET assay
# [6] = molecular target: T1, Nuclear receptor ROR-gamma; experiment: Inverse agonist activity at human RORgammat LBD expressed in HEK293T cells assessed inhibition of Gal4 reporter gene transcription measured after 16 to 20 hrs by luciferase reporter gene assay; format: cell-based
# [7] = molecular target: T3, Nuclear receptor ROR-gamma (Homo sapiens) (UniProt P51449); experiment: Inverse agonist activity at human RORgammat LBD expressed in HEK293T cells assessed inhibition of Gal4 reporter gene transcription measured after 16 to 20 hrs by luciferase reporter gene assay relative to control; format: cell-based; details: filed as inverse agonist, time 16-20 hrs
# T3 sequence (whole entry): T1 sequence (P51449 whole entry)
EC50 [1],Structure (SMILES),further results
12.2 nM,CCS(=O)(=O)c1ccc(CNC(=O)c2ccc(CCN3CCCc4ccc(OC5CCC5)cc43)cc2)nc1,–
7.3 nM,CCS(=O)(=O)c1ccc(CC(=O)Nc2ccc(CCN3CCOc4ccc(OC(C)C)cc43)cc2)cc1,–
46 nM,CS(=O)(=O)c1ccc(CC(=O)Nc2ccc(CCN3CCOc4ccc(C(F)(C(F)(F)F)C(F)(F)F)cc43)cc2)cc1,–
7.1 nM,CCS(=O)(=O)c1ccc(CNC(=O)c2ccc(CCN3CCOc4ccc(CC(C)C)cc43)cc2)nc1,–
7.5 nM,CC(C)Oc1ccc2c(c1)N(CCc1ccc(C(=O)NCc3ccc(S(C)(=O)=O)cn3)cc1)CCO2,EC50 [2]: 107 nM; Activity [3]: 59.4%; Activity [4]: 45.2%
15.6 nM,CCS(=O)(=O)c1ccc(CC(=O)Nc2ccc(CCN3CCCc4ccc(OC5CCC5)cc43)cc2)cc1,–
4.4 nM,CC(Oc1ccc2c(c1)N(CCc1ccc(NC(=O)Cc3ccc(S(C)(=O)=O)cc3)cc1)CCO2)C(F)(F)F (centres undefined),–
–,CS(=O)(=O)c1ccc(CC(=O)Nc2ccc(CCN3CCOc4ccc(C(O)(C(F)(F)F)C(F)(F)F)cc43)cc2)cc1,IC50 [5]: 14.6 nM
12.8 nM,CCS(=O)(=O)c1ccc(CC(=O)Nc2ccc(CCN3CCCc4ccc(CC5CC5)cc43)cc2)cc1,–
25.9 nM,CCS(=O)(=O)c1ccc(CNC(=O)Nc2ccc(CCN3CCCc4ccc(CC(C)C)cc43)cc2)cc1,–
–,CCS(=O)(=O)c1ccc(CC(=O)Nc2ccc(CC(=O)N3CCCc4ccc(CC(C)C)cc43)cc2)cc1,IC50 [6]: 151 nM; Imax [7]: 101%; IC50 [5]: 31.5 nM
30.3 nM,CCS(=O)(=O)c1ccc(CC(=O)Nc2ccc(CCN3CCCc4ccc(CC(C)(C)C)cc43)cc2)cc1,–
20.9 nM,CCS(=O)(=O)c1ccc(C(CO)NC(=O)c2ccc(CCN3CCCc4ccc(CC(C)C)cc43)cc2)cc1 (centres undefined),–
21.5 nM,CCS(=O)(=O)c1ccc(CC(=O)Nc2ccc(CCN3CCCc4ccccc43)cc2)cc1,–
4.4 nM,CC(C)Oc1ccc2c(c1)N(CCc1ccc(NC(=O)Cc3ccc(S(C)(=O)=O)cc3)cc1)CCO2,–
7.7 nM,CCS(=O)(=O)c1ccc(CNC(=O)c2ccc(CCN3CCCc4ccc(OC5COC5)cc43)cc2)nc1,–
6.6 nM,CCS(=O)(=O)c1ccc(CC(=O)Nc2ccc(CCN3CCCc4ccc(OC5COC5)cc43)cc2)cc1,–
8.9 nM,CCS(=O)(=O)c1ccc(CNC(=O)c2ccc(CCN3CCCc4ccc(OC(C)C)cc43)cc2)nc1,–
11.5 nM,CCS(=O)(=O)c1ccc(CC(=O)Nc2ccc(CCN3CCCc4ccc(F)cc43)cc2)cc1,–
16.7 nM,CCS(=O)(=O)c1ccc(CC(=O)Nc2ccc(CCN3CCCc4ccc(C)cc43)cc2)cc1,–
8.9 nM,CCS(=O)(=O)c1ccc(CNC(=O)c2ccc(CCN3CCCc4ccc(CC(C)C)cc43)cc2)nc1,EC50 [2]: 242 nM; Activity [3]: 104%; Activity [4]: 56.3%
4.6 nM,CCS(=O)(=O)c1ccc(CNC(=O)c2ccc(CCN3CCOc4ccc(OC(C)C)cc43)cc2)nc1,EC50 [2]: 135 nM
5.3 nM,CCS(=O)(=O)c1ccc(CC(=O)Nc2ccc(CCN3CCCc4ccc(C=C(C)C)cc43)cc2)cc1,–
13 nM,CCS(=O)(=O)c1ccc(CC(=O)Nc2ccc(CCN3CCCc4ccc(CC(C)C)cc43)c(F)c2)cc1,–
22.1 nM,CCS(=O)(=O)c1ccc(CC(=O)Nc2ccc(CCN3CCCc4ccc(C(C)C)cc43)cc2)cc1,–
